Results reported in patent US20230145835A1, “Modulators of Alpha-4-beta-7 Integrin and MAdCAM” (48HD Biopharma Inc., priority 2021, published 2023).
Numbered stars: 1 amine (or outer) side, 2 acyl side, 3 side chain; on linkers, the order of the positions; unused ones are H or OH. Bridge positions count the residues as written; N and C are the ends. Square brackets hold non-standard residues; d marks the D form. Peptide text beside a SMILES is read from it. X3 = O=C(/C=N/OCCCCCCOc1cc(C[*:2])cc(C[*:3])c1)[*:1]; X1 = O=C(C=NOCCCCCCOc1cc(C[*:2])cc(C[*:3])c1)[*:1]; X5 = O=C(CCCCCCOc1cc(C[*:2])cc(C[*:3])c1)[*:1]; Cba = N[C@@H](CC1CCC1)C(=O)O; hSer = N[C@@H](CCO)C(=O)O; Nle = CCCC[C@H](N)C(=O)O

What follows are compounds tested against T1, rh-integrin α4β7/LPAM-1 (Homo sapiens, UniProt P13612+P26010) (assay: α4β7-MadCAM Competition ELISA (Example 4)). Conditions: Table 3 Representative compounds; inhibition of MAdCAM binding to coated α4β7; read-out: IC50.
T1 sequence (P13612 34-977 limits assumed): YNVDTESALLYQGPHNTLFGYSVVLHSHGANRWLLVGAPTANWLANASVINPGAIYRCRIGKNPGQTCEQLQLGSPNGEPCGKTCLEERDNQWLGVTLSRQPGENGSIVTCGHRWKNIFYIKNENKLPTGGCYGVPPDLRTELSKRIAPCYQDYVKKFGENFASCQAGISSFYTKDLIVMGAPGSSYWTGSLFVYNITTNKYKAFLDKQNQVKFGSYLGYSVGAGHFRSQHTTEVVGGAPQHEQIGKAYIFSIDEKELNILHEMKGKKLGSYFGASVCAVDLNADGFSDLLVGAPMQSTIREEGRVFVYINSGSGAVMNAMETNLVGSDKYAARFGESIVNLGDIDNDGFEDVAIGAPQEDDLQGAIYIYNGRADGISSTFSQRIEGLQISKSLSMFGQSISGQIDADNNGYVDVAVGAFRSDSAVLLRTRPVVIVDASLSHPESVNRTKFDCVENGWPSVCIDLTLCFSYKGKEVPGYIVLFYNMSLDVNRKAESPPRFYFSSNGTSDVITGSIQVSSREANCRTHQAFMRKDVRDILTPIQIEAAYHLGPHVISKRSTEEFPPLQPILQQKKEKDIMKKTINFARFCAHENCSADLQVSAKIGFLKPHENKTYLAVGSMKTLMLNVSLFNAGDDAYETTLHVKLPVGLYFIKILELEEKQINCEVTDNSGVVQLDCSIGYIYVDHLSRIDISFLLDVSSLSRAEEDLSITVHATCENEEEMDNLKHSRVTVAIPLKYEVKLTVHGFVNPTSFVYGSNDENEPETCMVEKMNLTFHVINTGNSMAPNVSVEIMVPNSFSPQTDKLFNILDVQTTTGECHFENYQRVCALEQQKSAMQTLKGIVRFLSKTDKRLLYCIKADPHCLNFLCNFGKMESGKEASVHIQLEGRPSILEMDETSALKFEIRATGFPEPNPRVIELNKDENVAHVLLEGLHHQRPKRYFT
T1 sequence (P26010 20-723 limits assumed): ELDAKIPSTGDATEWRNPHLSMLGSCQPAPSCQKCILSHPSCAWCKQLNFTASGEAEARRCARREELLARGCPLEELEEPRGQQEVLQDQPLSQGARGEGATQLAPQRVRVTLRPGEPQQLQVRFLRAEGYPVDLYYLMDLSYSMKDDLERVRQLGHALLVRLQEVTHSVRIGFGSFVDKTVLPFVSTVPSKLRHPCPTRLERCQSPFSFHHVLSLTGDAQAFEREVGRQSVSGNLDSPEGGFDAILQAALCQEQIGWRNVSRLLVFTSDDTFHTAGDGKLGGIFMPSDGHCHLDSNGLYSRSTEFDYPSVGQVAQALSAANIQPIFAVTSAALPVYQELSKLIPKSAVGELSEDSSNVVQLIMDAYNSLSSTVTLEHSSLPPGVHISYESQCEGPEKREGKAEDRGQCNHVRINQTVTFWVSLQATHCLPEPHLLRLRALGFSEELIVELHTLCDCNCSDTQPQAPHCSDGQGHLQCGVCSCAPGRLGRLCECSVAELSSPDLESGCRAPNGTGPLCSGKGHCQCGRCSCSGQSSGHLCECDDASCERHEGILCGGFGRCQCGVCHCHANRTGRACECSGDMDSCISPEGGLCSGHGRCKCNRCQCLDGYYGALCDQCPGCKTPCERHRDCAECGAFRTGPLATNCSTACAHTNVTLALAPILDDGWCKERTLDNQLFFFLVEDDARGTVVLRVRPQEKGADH
Assay type: binding
Procedure: After washing with wash buffer, 200 μL assay buffer was added to each well and incubated for one hour at 28° C. After another wash with wash buffer, 100 μL of a MAdCAM and peptide mixture in assay buffer was added to each well and incubated for one hour at 28° C., followed by washing with wash buffer.
For `CSCC[C@@H]1NC(=O)/C=N/OCCCCCCOc2cc3cc(c2)CSC[C@H](NC1=O)C(=O)N[C@@H](Cc1ccc(O)cc1)C(=O)N1CCC[C@H]1C(=O)N[C@@H](CC(=O)O)C(=O)N[C@@H]([C@@H](C)O)C(=O)N[C@@H](Cc1ccc(O)cc1)C(=O)N[C@@H](Cc1cnc[nH]1)C(=O)N[C@H](C(N)=O)CSC3` [compound 101, TSL6- SMCYPDTYHC] (MCYPDTYHC-NH2; linker N-2-9 via X3), the IC50 was 167 µM. `CC(C)C[C@@H]1NC(=O)/C=N/OCCCCCCOc2cc3cc(c2)CSC[C@H](NC1=O)C(=O)N[C@@H](Cc1ccc(O)cc1)C(=O)N[C@@H](CCC(=O)O)C(=O)N[C@@H](Cc1c[nH]c2ccccc12)C(=O)N[C@H](CCC(=O)O)C(=O)N[C@@H](Cc1cnc[nH]1)C(=O)N[C@@H](C)C(=O)N[C@H](C(N)=O)CSC3` [compound 63, TSL6- SLCYEWEHAC] (LCYEW[dE]HAC-NH2; linker N-2-9 via X3) gave an IC50 of 7.95 µM. With `CCCC[C@@H]1NC(=O)[C@@H]2CCCN2C(=O)[C@@H]2CSCc3cc(cc(c3)OCCCCCCO/N=C/C(=O)N[C@@H](CCCNC(=N)N)C(=O)N2)CSC[C@@H](C(N)=O)NC(=O)[C@H](CCC(=O)O)NC(=O)[C@H](CCC(N)=O)NC(=O)[C@H](Cc2c[nH]c3ccccc23)NC(=O)[C@H](C(C)C)NC(=O)[C@H](CC(=O)O)NC1=O` [compound 3] (RCP[Nle]DVWQEC-NH2; linker N-2-10 via X3) the IC50 was 0.053 µM. `CC(C)C[C@@H]1NC(=O)[C@H]([C@@H](C)O)NC(=O)[C@H](CC(=O)O)NC(=O)[C@H](CO)NC(=O)[C@H](CCCNC(=N)N)NC(=O)[C@@H](N)CSSC[C@@H](C(N)=O)NC1=O` [compound 8] (H-CRSDTLC-NH2; disulfide 1-7) was tested, and the IC50 was 0.186 µM. `CSCC[C@@H]1NC(=O)[C@H](CO)NC(=O)[C@H](CC(=O)O)NC(=O)[C@@H]2CCCN2C(=O)[C@@H]2CSCc3cc(cc(c3)OCCCCCCO/N=C/C(=O)N[C@@H](CC(=O)O)C(=O)N2)CSC[C@@H](C(N)=O)NC(=O)[C@H](CO)NC(=O)[C@H](Cc2cnc[nH]2)NC(=O)[C@H](C)NC1=O` [compound 65, TSL6- SDCPDSMAHSC] (DCPDSMAHSC-NH2; linker N-2-10 via X3) showed an IC50 of 13.8 µM. `CCCC[C@@H]1NC(=O)[C@@H]2CCCN2C(=O)[C@@H]2CSCc3cc(cc(c3)OCCCCCCO/N=C/C(=O)N[C@@H](CCCNC(=N)N)C(=O)N2)CSC[C@@H](C(N)=O)NC(=O)[C@H](CCC(=O)O)NC(=O)[C@H](CCC(N)=O)NC(=O)[C@H](Cc2c[nH]c3ccccc23)NC(=O)[C@H]([C@@H](C)CC)NC(=O)[C@H](CC(=O)O)NC1=O` [compound 9] (RCP[Nle]DIWQEC-NH2; linker N-2-10 via X3) was tested, and the IC50 was 0.187 µM. Work on `CCCC[C@@H]1NC(=O)[C@@H]2CCCN2C(=O)[C@@H]2CSCc3cc(cc(c3)OCCCCCCC(=O)NCC(=O)N[C@@H](CCCCN)C(=O)N2)CSC[C@@H](C(N)=O)NC(=O)[C@H](CCC(=O)O)NC(=O)[C@H](CCC(N)=O)NC(=O)[C@H](Cc2c[nH]c3ccccc23)NC(=O)[C@H](CC2CCC2)NC(=O)[C@H](CC(=O)O)NC1=O` [compound 45, TSLC7-GKCP{Nle}D {CbA}WQEC] (GKCP[Nle]D[Cba]WQEC-NH2; linker N-3-11 via X5) yielded an IC50 of 1.61 µM. `CC(C)C[C@@H]1NC(=O)[C@H]([C@@H](C)O)NC(=O)[C@H](CC(=O)O)NC(=O)[C@H](CO)NC(=O)[C@H](CCCNC(=N)N)N(C)C(=O)CCSC[C@@H](C(=O)N[C@@H](Cc2c[nH]c3ccccc23)C(=O)N[C@@H](CCCCN)C(N)=O)NC1=O` [compound 2] showed an IC50 of 0.033 µM. Compound `CCCC[C@@H]1NC(=O)[C@@H]2CCCN2C(=O)[C@@H]2CSCc3cc(cc(c3)OCCCCCCO/N=C/C(=O)N[C@@H](CCCNC(=N)N)C(=O)N2)CSC[C@@H](C(N)=O)NC(=O)[C@H](CCC(=O)O)NC(=O)[C@H](CCC(N)=O)NC(=O)[C@H](Cc2c[nH]c3ccccc23)NC(=O)[C@H](CC2CCC2)NC(=O)[C@H](CC(=O)O)NC1=O` [compound 55, TSL6-SRCP{Nle}D {CbA}WQEC] (RCP[Nle]D[Cba]WQEC-NH2; linker N-2-10 via X3) has an IC50 of 3.45 µM. Compound `CC(C)C[C@@H]1NC(=O)[C@@H]2CCCN2C(=O)[C@@H]2CSCc3cc(cc(c3)OCCCCCCO/N=C/C(=O)N[C@@H](CCCCN)C(=O)N2)CSC[C@@H](C(N)=O)NC(=O)[C@H](CCC(=O)O)NC(=O)[C@H](Cc2ccc(O)cc2)NC(=O)[C@@H]2CCCN2C(=O)[C@H](C(C)C)NC(=O)[C@H](CC(=O)O)NC1=O` [compound 10] (KCPLDVPYEC-NH2; linker N-2-10 via X3) has an IC50 of 0.188 µM. `CC[C@H](C)[C@@H]1NC(=O)[C@H](CC(=O)O)NC(=O)[C@H](CCOC)NC(=O)[C@@H]2CCCN2C(=O)[C@@H]2CSCc3cc(cc(c3)OCCCCCCO/N=C/C(=O)N[C@@H](CCCNC(=N)N)C(=O)N2)CSC[C@@H](C(N)=O)NC(=O)[C@H](CCC(=O)O)NC(=O)[C@H](CCC(N)=O)NC(=O)[C@H](Cc2c[nH]c3ccccc23)NC1=O` [compound 14] (RCP[hSer](Me)DIWQEC-NH2; linker N-2-10 via X3) gave an IC50 of 0.26 µM. Work on `CC(C)C[C@H]1NC(=O)[C@@H]2CCCN2C(=O)[C@@H]2CSCc3cc(cc(c3)OCCCCCCO/N=C/C(=O)N[C@@H](C)C(=O)N2)CSC[C@@H](C(N)=O)NC(=O)[C@H](CO)NC(=O)[C@@H]2CCCN2C(=O)[C@H](C(C)C)NC(=O)[C@H](CC(=O)O)NC1=O` [compound 74, TSL6- SACPLDVPSC] (ACP[dL]DVPSC-NH2; linker N-2-9 via X3) yielded an IC50 of 31 µM. `C[C@@H]1NC(=O)/C=N/OCCCCCCOc2cc3cc(c2)CSC[C@H](NC1=O)C(=O)N[C@@H](Cc1ccc(O)cc1)C(=O)N1CCC[C@H]1C(=O)N[C@@H](CC(=O)O)C(=O)N[C@@H]([C@@H](C)O)C(=O)N[C@@H](Cc1ccc(O)cc1)C(=O)N[C@@H](Cc1cnc[nH]1)C(=O)N[C@H](C(N)=O)CSC3` [compound 93, TSL6- SACYPDTYHC] (ACYPDTYHC-NH2; linker N-2-9 via X3) showed an IC50 of 111 µM.

Same assay, conditions: competition ELISA, 4 μg/mL α4β7 coated, MAdCAM and peptide mixture, 28° C.; read-out: IC50
`CC(C)C[C@@H]1NC(=O)[C@@H]2CCCN2C(=O)[C@@H](NC(=O)[C@H](CCCCN)NC(=O)[C@@H](N)CO)CSSC[C@@H](C(=O)O)NC(=O)[C@H](CCC(=O)O)NC(=O)[C@H](Cc2ccc(O)cc2)NC(=O)[C@@H]2CCCN2C(=O)[C@H]([C@@H](C)O)NC(=O)[C@H](CC(=O)O)NC1=O` [SEQ ID NO: 152] (H-SKCPLDTPYEC-OH; disulfide 3-11; N-terminus and C-terminus assumed) gave an IC50 of 0.552 µM. In the case of `CC(C)C[C@@H]1NC(=O)[C@@H]2CCCN2C(=O)[C@@H]2CSCc3cc(cc(c3)OCCCCCCON=CC(=O)N[C@@H](CCCCN)C(=O)N2)CSC[C@@H](C(=O)O)NC(=O)[C@H](CO)NC(=O)[C@@H]2CCCN2C(=O)[C@H](C(C)C)NC(=O)[C@H](C)NC1=O` [SEQ ID NO: 56] (KCPLAVPSC-OH; linker N-2-9 via X1), the IC50 is reported as 55.9 µM. With `CC(C)C[C@@H]1NC(=O)[C@@H]2CCCN2C(=O)[C@@H]2CSCc3cc(cc(c3)OCCCCCCON=CC(=O)N[C@@H](CCCCN)C(=O)N2)CSC[C@@H](C(=O)O)NC(=O)[C@H](CCC(=O)O)NC(=O)[C@H](Cc2ccc(O)cc2)NC(=O)[C@@H]2CCCN2C(=O)[C@H](CC(C)C)NC(=O)[C@H](CC(=O)O)NC1=O` [SEQ ID NO: 134] (KCPLDLPYEC-OH; linker N-2-10 via X1) the IC50 was 0.363 µM. `C[C@@H](O)[C@@H]1NC(=O)[C@H](CC(=O)O)NC(=O)[C@@H]2CCCN2C(=O)[C@H](Cc2ccc(O)cc2)NC(=O)[C@@H]2CSCc3cc(cc(c3)OCCCCCCON=CC(=O)N[C@@H](CC(N)=O)C(=O)N2)CSC[C@@H](C(=O)O)NC(=O)[C@H](Cc2c[nH]cn2)NC(=O)[C@H](Cc2ccc(O)cc2)NC1=O` [SEQ ID NO: 86] (NCYPDTYHC-OH; linker N-2-9 via X1) showed an IC50 of 79.3 µM.
